{"source": "patent US8815592B2", "about": "“Methods and compositions related to dopaminergic neuronal cells” (Research Development Foundation, priority 2010, dated 2014)", "key": {"[1]": {"biological_target": "T1, dopaminergic transporter DAT (Mus musculus, UniProt Q61327)", "T1 construct": "After 16 days of differentiations, cells were incubated with [^3H]; Win35, 428 for 1 hour; endogenous in cells; host or cells: dopaminergic neurons differentiated from mouse embryonic stem cells (CGR8 line)", "T1 sequence (Q61327 whole entry)": "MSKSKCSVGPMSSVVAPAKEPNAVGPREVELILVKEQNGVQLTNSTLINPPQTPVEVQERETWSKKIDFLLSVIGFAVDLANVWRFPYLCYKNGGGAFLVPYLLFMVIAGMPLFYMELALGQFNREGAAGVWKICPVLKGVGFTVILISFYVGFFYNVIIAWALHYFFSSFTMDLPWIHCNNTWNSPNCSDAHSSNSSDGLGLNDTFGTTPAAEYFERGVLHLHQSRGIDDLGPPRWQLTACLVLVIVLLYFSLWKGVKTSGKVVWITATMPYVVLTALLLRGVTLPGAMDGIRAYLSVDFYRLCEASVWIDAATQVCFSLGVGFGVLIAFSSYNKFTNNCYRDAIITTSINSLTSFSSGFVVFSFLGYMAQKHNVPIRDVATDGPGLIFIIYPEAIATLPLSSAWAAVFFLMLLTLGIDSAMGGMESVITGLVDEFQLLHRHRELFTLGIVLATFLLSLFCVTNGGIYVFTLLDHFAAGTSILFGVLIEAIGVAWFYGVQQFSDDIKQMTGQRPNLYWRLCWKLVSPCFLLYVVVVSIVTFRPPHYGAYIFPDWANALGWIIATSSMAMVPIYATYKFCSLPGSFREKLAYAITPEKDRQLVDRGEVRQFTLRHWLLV", "assay": "[3H] Win 35,428 binding on DAT receptor of ES-derived dopaminergic neurons, with and without GBR 12909", "conditions": "cells incubated with 10 μm GBR 12909 hydrochloride; 5 nM ligand; 6 well plates", "quoted_text": "Cells were incubated on binding buffer containing 5 nM of the ligand at different time (30 to 60 minutes), with and without 10 μm of GBR 12909 hydrochloride. […] Radioactivity measured by liquid scintillation counter (WALLAC).\nWin 35,428 binding to DAT receptor and DA-neurons in 96-well plate, cells were plated at the density of 60 cells/well.\nAfter 16 days of differentiations, cells were incubated with [^3H] Win35, 428 for 1 hour and then washed by binding buffer for 1 minute, following by direct counting using liquid scintillation counter (WALLAC).\nIn detail, the binding assay was performed at 4° C. in phosphate-buffered saline (PBS) (Invitrogen/Gibco) containing 0.32 M sucrose with Ca^2+ and Mg^2+. Cells in each well were washed one time with 0.5 ml of phosphatebuffered. Then incubated at various time (30 to 60 min) with various amounts (5 to 10 nM) of [^3H] Win 35,428. The non specific binding was determined in the presence or not of 10 μM of GBR-12909 hydrochloride. The incubation was stopped by rinsing the cells three times with ice-cold buffer to eliminate non-linked [^3H] Win 35,428 and removal of cells. Cells were detached by a rake and transferred into a 96 well plate. Radioactivity was measured by a liquid scintillation counter (WALLAC)."}, "[2]": {"tested_on": "Engineered neural tissues (ENTs)", "assay": "Neurotoxicology testing platform, electrical activity of engineered neural tissues", "type": "cell-based, mouse", "conditions": "ENTs (FIG. 13)", "protocol": "Engineered neural tissues (ENTs) (a similar scheme could be applied to dopaminergic neurons provided according to certain aspects of the present invention) can be used for establishment of a neurotoxicology testing platform (FIG. 12). […] Mouse ENTs differentiated for 21 days were exposed to putative neurotoxic for 24 hours and spontaneous electrical activity was measured for the neurotoxicity testing (FIG. 14). Electrophysiological characterizations of ENTs include characterization of spontaneous activity such as spike frequency, spike amplitude, burst frequency (number of bursts per second), or number of spikes per burst, or characterization of evoked filed potentials such as amplitude of responses, paired-pulse inhibition, or input/output curve. The electrophysiological characterization of ENTs can be carried out by a multi-electrode array (FIG. 16)."}}, "note": "Where a name gives a salt, the structure may show the parent alone.", "data": [{"compound": "Fc1ccc(C(OCCN2CCN(CCCc3ccccc3)CC2)c2ccc(F)cc2)cc1", "note": "[GBR 12909 hydrochloride]", "values": [{"measurement": "non-specific binding as share of the total binding of [3H] Win 35,428", "setting": "[1]", "value": 50, "unit": "%"}]}, {"compound": "COc1cc2c(c(OC)c1OC)-c1ccc(OC)c(=O)cc1[C@@H](NC(C)=O)CC2", "note": "[colchicine]", "values": [{"measurement": "epileptogenic activity", "setting": "[2]", "value": "demonstrated"}]}]}
